Measured values reported in patent publication US4370489A, “Herbicidal compounds” (Hoechst Aktiengesellschaft, priority 1976, dated 1983).

Experiments:
Lolium [1] = experiment: Pre-emergence greenhouse pot trial, Lolium (Example V, Table V); type: in vivo
Experimental: (§1) The results and also the results of all following examples were evaluated 4 weeks later according to the following scheme:
(§2) In a greenhouse the compounds to be tested were sprayed on the surface of the soil directly after sowing. […] Dicotyledonous crop plants (the same as used in Example I) were not damaged by the applied amounts.
(§3) Effect on weed grasses in a pre-emergence process (evalua-
(§4) tion scheme) experiment in pots in the greenhouse.

wild oat = experiment: Field trial in wild oat, post-emergence treatment (Example VI, Table VI); type: in vivo; details: for efficiency in % (counting of panicles) / evaluation 5 weeks after treatment: post-emergence
Experimental: In a field trial compound 1a of the invention was sprayed in the form of a 36% wettable powder formulation onto wild oat (single system, natural growth) after the plants had developed 3 or 4 leaves.
Three lots each were treated with different concentrations of the active compound and the comparative compound, the amount of spray liquor applied being 600 liters per hectare. Besides the usual visual evaluation at the end of the trial, the number of panicles per square meter was counted. In the untreated lots 400 to 500 panicles were counted per square meter, i.e. the field was heavily infected.
The relations are still more distinct when the amount of active compound required for a 90% effect is determined by the probit method (graphical evaluation) mentioned in Example II.

Setaria [2] = experiment: Post-emergence greenhouse pot trial, Setaria (Example I, Table I); type: in vivo; details: greenhouse pots, 4 weeks
Experimental: (§5) Seeds of weed grasses were sown in pots filled with loamy soil and placed in the greenhouse for germination and emergence. As soon as the plants had developed 3 or 4 leaves, they were sprayed with wettable powder formulations, suspended in water, of compounds according to the invention.
as §1
(§6) 4 is still considered an acceptable herbicidal effect in weeds and a satisfactory preserving effect in crop plants (cf. Bolle, Nachrichtenblatt des Deutschen Pflanzenschutzdienstes 16, 1964, pages 92-94).
(§7) Effect on weed grasses in a post-emergence trial in pots
(§8) in the greenhouse (Evaluation scheme)

Avena ludoviciana = experiment: Post-emergence treatment, pots on a site without roof, Avena ludoviciana (Example IV, Table IV); type: in vivo; details: post-emergence, emulsion concentrate
Experimental: as §1
(§9) In summer a further experiment was carried through under similar conditions to compare the effect of compound 1a with that of comparative compound A. Both compounds were used in the form of an emulsion concentrate (Table IV).
(§10) Post-emergence treatment (evaluation scheme); experiment
(§11) in pots on a site without roof

Avena fatua [3] = experiment: Post-emergence trial in two stages, pots on a site without roof, wild oat (Example II, Table II); type: in vivo; details: for 90% effective dose: probit method; for Effect on wild oat (evaluation), Avena fatua: post-emergence
Experimental: as §1
(§12) The amounts of active compound required for a 90% effect, determined by the probit method (cf. Bliss, Annals of Applied Biology, 22 1935), show very distincly the difference between the compound of the invention and the comparative compound. […] None of the compounds did any harm to the wheat.
(§13) Post-emergence treatment in two different stages of development
(§14) Experiments in pots on a site without roof
(§15) stage 1: 3 to 4 leaves with beginning growth of side
(§16) stage 2: main tillering to terminated tillering.

sugar beet = experiment: Post emergence treatment in two stages, boxes on a site without roof, sugar beet (Table III); type: in vivo; details: 0.9 kg/hectare
Experimental: as §1
(§17) Effect on wild oat and sugar beet
(§18) Post emergence treatment in two stages of development
(§19) boxes 20 × 24 × 22 cm in size on a site without roof

spring wheat [4] = experiment: Post-emergence trial in two stages, pots on a site without roof, spring wheat (Example II, Table II); type: in vivo
Experimental: as §1, §12, §13, §14, §15, §16

Echinochloa [5] = experiment: Pre-emergence greenhouse pot trial, Echinochloa (Example V, Table V); type: in vivo
Experimental: as §1, §2, §3, §4

spring barley = experiment: Post-emergence treatment, pots on a site without roof, spring barley (Example IV, Table IV); type: in vivo; details: emulsion concentrate; further: ranges in brackets are in %
Experimental: as §1, §9, §10, §11

Digitaria [6] = experiment: Pre-emergence greenhouse pot trial, Digitaria (Example V, Table V); type: in vivo
Experimental: as §1, §2, §3, §4

Echinochloa [7] = experiment: Post-emergence greenhouse pot trial, Echinochloa (Example I, Table I); type: in vivo; details: greenhouse pots, 4 weeks
Experimental: as §5, §1, §6, §7, §8

Setaria [8] = experiment: Pre-emergence greenhouse pot trial, Setaria (Example V, Table V); type: in vivo
Experimental: as §1, §2, §3, §4

spring wheat [9] = experiment: Post-emergence treatment, pots on a site without roof, spring wheat (Example IV, Table IV); type: in vivo; details: emulsion concentrate; further: ranges in brackets are in %
Experimental: as §1, §9, §10, §11

Lolium [10] = experiment: Post-emergence greenhouse pot trial, Lolium (Example I, Table I); type: in vivo; details: greenhouse pots, 4 weeks
Experimental: as §5, §1, §6, §7, §8

Avena fatua [11] = experiment: Post-emergence treatment, pots on a site without roof, Avena fatua (Example IV, Table IV); type: in vivo; details: post-emergence, emulsion concentrate
Experimental: as §1, §9, §10, §11

Digitaria [12] = experiment: Post-emergence greenhouse pot trial, Digitaria (Example I, Table I); type: in vivo; details: greenhouse pots, 4 weeks
Experimental: as §5, §1, §6, §7, §8

Alopecurus myos. = experiment: Post-emergence treatment, pots on a site without roof, blackgrass (Example IV, Table IV); type: in vivo, annual black-grass (Alopecurus); details: for Effect (evaluation scheme), Alopecurus myos.: post-emergence, emulsion concentrate
Experimental: as §1, §9, §10, §11

Avena fatua [13] = experiment: Post emergence treatment in two stages, boxes on a site without roof, wild oat (Table III); type: in vivo; details: 0.9 kg/hectare
Experimental: as §1, §17, §18, §19

Alopecurus = experiment: Post-emergence greenhouse pot trial, annual blackgrass (Example I, Table I); type: in vivo, annual blackgrass (Alopecurus); details: for Effect on weed grasses (evaluation scheme number), Alopecurus: greenhouse pots, 4 weeks
Experimental: as §5, §1, §6, §7, §8

COC(=O)C(C)Oc1ccc(Oc2ccc(Cl)cc2Cl)cc1 (stereo not drawn) [A, methyl-2-[4-(2',4'-dichlorophenoxy)-phenoxy]-propionate, reference compound]
Effect on weed grasses (evaluation scheme), Lolium (Lolium [1]; 0.62 kg/hectare): 6 (75.0 to <85.0) | Effect on weed grasses (evaluation scheme), Lolium (Lolium [1]; 1.25 kg/hectare): 5 (85.0 to <90.0) | efficiency in % (counting of panicles) (wild oat; 0.54 kg/hectare): 50.7% | evaluation 5 weeks after treatment (wild oat; 0.54 kg/hectare): 8 (32.5 to <65.0) | efficiency in % (counting of panicles) (wild oat; 0.72 kg/hectare): 59.9% | evaluation 5 weeks after treatment (wild oat; 0.72 kg/hectare): 7 (65.0 to <75.0) | effect on wild oat (wild oat; 0.90 kg per hectare, in words): insufficient | efficiency in % (counting of panicles) (wild oat; 0.90 kg/hectare): 65.2% | evaluation 5 weeks after treatment (wild oat; 0.90 kg/hectare): 6 (75.0 to <85.0) | amount of active compound required for a 90% effect (wild oat; without wetting agent, probit method (graphical evaluation)): 2.7 kg/hectare | Effect on weed grasses (evaluation scheme number), Setaria (Setaria [2]; 0.15 kg/hectare): 4 (90.0 to <95.0) | Effect on weed grasses (evaluation scheme number), Setaria (Setaria [2]; 0.62 kg/hectare): 2 (97.5 to <100) | Effect on weed grasses (evaluation scheme number), Setaria (Setaria [2]; 2.5 kg/hectare): 1 (100) | Effect (evaluation scheme), Avena ludoviciana (Avena ludoviciana; 0.225 kg/hectare): 7 (65.0 to <75.0) | Effect (evaluation scheme), Avena ludoviciana (Avena ludoviciana; 0.45 kg/hectare): 7 (65.0 to <75.0) | Effect (evaluation scheme), Avena ludoviciana (Avena ludoviciana; 0.9 kg/hectare): 6 (75.0 to <85.0) | 90% effective dose (Avena fatua [3]; stage 1 (3 to 4 leaves with beginning growth of side)): 0.55 kg per hectare | Effect on wild oat (evaluation), Avena fatua (Avena fatua [3]; stage 1, 0.112 kg/hectare): 9 (0 to <32.5) | Effect on wild oat (evaluation), Avena fatua (Avena fatua [3]; stage 1, 0.225 kg/hectare): 8 (32.5 to <65.0) | Effect on wild oat (evaluation), Avena fatua (Avena fatua [3]; stage 1, 0.45 kg/hectare): 5 (85.0 to <90.0) | Effect on wild oat (evaluation), Avena fatua (Avena fatua [3]; stage 1, 0.9 kg/hectare): 3 (95.0 to <.97.5) | 90% effective dose (Avena fatua [3]; stage 2 (main tillering to terminated tillering)): 0.82 kg per hectare | Effect on wild oat (evaluation), Avena fatua (Avena fatua [3]; stage 2, 0.112 kg/hectare): 8 (32.5 to <65.0) | Effect on wild oat (evaluation), Avena fatua (Avena fatua [3]; stage 2, 0.225 kg/hectare): 7 (65.0 to <75.0) | Effect on wild oat (evaluation), Avena fatua (Avena fatua [3]; stage 2, 0.45 kg/hectare): 5 (85.0 to <90.0) | Effect on wild oat (evaluation), Avena fatua (Avena fatua [3]; stage 2, 0.9 kg/hectare): 5 (85.0 to <90.0) | sugar beet number (sugar beet; 2-leaf stage): 2 (0 to 2.5) | sugar beet number (sugar beet; 4-leaf stage): 2 (0 to 2.5) | evaluation, spring wheat (spring wheat [4]; stage 1, 0.112 kg/hectare): 1 (0) | evaluation, spring wheat (spring wheat [4]; stage 1, 0.225 kg/hectare): 1 (0) | evaluation, spring wheat (spring wheat [4]; stage 1, 0.45 kg/hectare): 1 (0) | evaluation, spring wheat (spring wheat [4]; stage 1, 0.9 kg/hectare): 1 (0) | evaluation, spring wheat (spring wheat [4]; stage 2, 0.112 kg/hectare): 1 (0) | evaluation, spring wheat (spring wheat [4]; stage 2, 0.225 kg/hectare): 1 (0) | evaluation, spring wheat (spring wheat [4]; stage 2, 0.45 kg/hectare): 1 (0) | evaluation, spring wheat (spring wheat [4]; stage 2, 0.9 kg/hectare): 1 (0) | Effect on weed grasses (evaluation scheme), Echinochloa (Echinochloa [5]; 0.62 kg/hectare): 4 (90.0 to <95.0) | Effect on weed grasses (evaluation scheme), Echinochloa (Echinochloa [5]; 1.25 kg/hectare): 3 (95.0 to <.97.5) | evaluation scheme, spring barley (spring barley; 0.225 kg/hectare): 1 (0) | evaluation scheme, spring barley (spring barley; 0.45 kg/hectare): 1 (0) | evaluation scheme, spring barley (spring barley; 0.9 kg/hectare): 1 (0) | Effect on weed grasses (evaluation scheme), Digitaria (Digitaria [6]; 0.62 kg/hectare): 7 (65.0 to <75.0) | Effect on weed grasses (evaluation scheme), Digitaria (Digitaria [6]; 1.25 kg/hectare): 4 (90.0 to <95.0) | Effect on weed grasses (evaluation scheme number), Echinochloa (Echinochloa [7]; 0.15 kg/hectare): 4 (90.0 to <95.0) | Effect on weed grasses (evaluation scheme number), Echinochloa (Echinochloa [7]; 0.62 kg/hectare): 3 (95.0 to <.97.5) | Effect on weed grasses (evaluation scheme number), Echinochloa (Echinochloa [7]; 2.5 kg/hectare): 2 (97.5 to <100) | Effect on weed grasses (evaluation scheme), Setaria (Setaria [8]; 0.62 kg/hectare): 8 (32.5 to <65.0) | Effect on weed grasses (evaluation scheme), Setaria (Setaria [8]; 1.25 kg/hectare): 6 (75.0 to <85.0) | evaluation scheme, spring wheat (spring wheat [9]; 0.225 kg/hectare): 1 (0) | evaluation scheme, spring wheat (spring wheat [9]; 0.45 kg/hectare): 1 (0) | evaluation scheme, spring wheat (spring wheat [9]; 0.9 kg/hectare): 1 (0) | Effect on weed grasses (evaluation scheme number), Lolium (Lolium [10]; 0.15 kg/hectare): 7 (65.0 to <75.0) | Effect on weed grasses (evaluation scheme number), Lolium (Lolium [10]; 0.62 kg/hectare): 5 (85.0 to <90.0) | Effect on weed grasses (evaluation scheme number), Lolium (Lolium [10]; 2.5 kg/hectare): 3 (95.0 to <.97.5) | Effect (evaluation scheme), Avena fatua (Avena fatua [11]; 0.225 kg/hectare): 8 (32.5 to <65.0) | Effect (evaluation scheme), Avena fatua (Avena fatua [11]; 0.45 kg/hectare): 8 (32.5 to <65.0) | Effect (evaluation scheme), Avena fatua (Avena fatua [11]; 0.9 kg/hectare): 6 (75.0 to <85.0) | Effect on weed grasses (evaluation scheme number), Digitaria (Digitaria [12]; 0.15 kg/hectare): 8 (32.5 to <65.0) | Effect on weed grasses (evaluation scheme number), Digitaria (Digitaria [12]; 0.62 kg/hectare): 3 (95.0 to <.97.5) | Effect on weed grasses (evaluation scheme number), Digitaria (Digitaria [12]; 2.5 kg/hectare): 1 (100) | Effect (evaluation scheme), Alopecurus myos. (Alopecurus myos.; 0.225 kg/hectare): 8 (32.5 to <65.0) | Effect (evaluation scheme), Alopecurus myos. (Alopecurus myos.; 0.45 kg/hectare): 6 (75.0 to <85.0) | Effect (evaluation scheme), Alopecurus myos. (Alopecurus myos.; 0.9 kg/hectare): 4 (90.0 to <95.0) | response of annual black-grass (Alopecurus) (Alopecurus myos.; in words): little | Effect on wild oat, Avena fatua, number (Avena fatua [13]; 3-leaf stage): 2 (97.5 to <100) | degree of damage % (evaluation by weight), Avena fatua (Avena fatua [13]; 3-leaf stage): 99% | Effect on wild oat, Avena fatua, number (Avena fatua [13]; start of tillering): 5 (85.0 to <90.0) | degree of damage % (evaluation by weight), Avena fatua (Avena fatua [13]; start of tillering): 79% | amount sufficient/required to keep blackgrass satisfactorily under control (Alopecurus; greenhouse): 2.5 kg per hectare | Effect on weed grasses (evaluation scheme number), Alopecurus (Alopecurus; 0.15 kg/hectare): 8 (32.5 to <65.0) | Effect on weed grasses (evaluation scheme number), Alopecurus (Alopecurus; 0.62 kg/hectare): 7 (65.0 to <75.0) | Effect on weed grasses (evaluation scheme number), Alopecurus (Alopecurus; 2.5 kg/hectare): 4 (90.0 to <95.0)
